# Entries after “also recorded” stand apart in the source; their conditions may differ.
# Tested on: whole cellular proteome of MDA-MB-231 cells
# Assay: Proteome profiling of LD4172 induced protein degradation
# Format: cell-based, human
# Settings: 200 nM, 6 h
# Method: One million MDA-MB-231 cells were seeded in 6-well plates. The following day, cells were treated in triplicate with LD4172 (200 nM) or LD4172-NC (200 nM) for 6 h. The cells were washed thrice with ice-cold PBS. The cell pellets were lysed, reduced, alkylated, and digested using EasyPep™ MS Sample Prep Kits (A45733,ThermoFisher) according to the manufacturer’s instructions. The same amount of peptide from each condition was labeled with a tandem mass tag (TMT) reagent (90113, ThermoFisher). The 10-plex TMT reagent was incubated with each peptide sample at a ratio of 1:8 (peptide:TMT label). The 10-plex labeling reactions were performed for 1 h at room temperature. The labeled peptide samples were quenched by adding 50 μL of 5% hydroxylamine and 20% formic acid solution for 5 min and then mixed. […]
# Proteome Discoverer 2.4 (Thermo Fisher Scientific) was used. RAW file processing and controlling peptide- and protein-level false discovery rates, assembling proteins from peptides, and protein quantification from peptides. […] PSMs with precursor isolation interference values > 50% and average TMT-reporter ion signal-to-noise values (S/N) < 10 were excluded from quantitation. […] Protein quantification uses both unique and […] peptides. […]
compound,measurement,setting,value
Cc1ncsc1-c1ccc([C@H](C)NC(=O)[C@@H]2C[C@@H](O)CN2C(=O)[C@@H](NC(=O)CCCCCCCCCCC(=O)NCCCn2cc(-c3ccc4c(c3)CCN4C(=O)Cc3cccc(OC(F)(F)F)c3)c3c(N)ncnc32)C(C)(C)C)cc1 [LD4172],degradation of off-target kinases,,no degradation of off-target kinases was observed
same,proteins degraded in whole cellular proteome,vs LD4172-NC,only protein showing >50% degradation; also recorded: RIPK1 was the only protein degraded

# — article PMC11042424, “Development of a First-in-Class RIPK1 Degrader to Enhance Antitumor Immunity” (Research Square, 2024)
